Like-named read-outs stand apart in the source and are kept apart here.
How the values were obtained:
[1] = system: complement activity of sera; experiment: Guinea Pig Intraperitoneal Test (GPIP); assay type: in vivo; details: Cavia porcellus, ip, 200 mg./kg. i.p.
Source text: An active inhibitor protects C2 from C1 and C4; (ii) Test Code 035 (C3-C9 inhibitor): This test determines the ability of the late components of human complement (C3-C9) to lyse EAC 142 in the presence of appropriate dilutions of the test compound. An active inhibitor protects EAC 142 from lysis by human C3-C9; (iii) Test Code 036 (C-Shunt inhibitor): In this test human erythrocytes rendered fragile are lysed in autologous serum via the shunt pathway activated by cobra venom factor in the presence of appropriate dilutions of the test compound. Inhibition of the shunt pathway results in failure of lysis; (iv) Forssman Vasculitis Test: Here, the well known complement dependent lesion, Forssman vasculitis, is produced in guinea pigs by intradermal injection of rabbit anti-Forssman antiserum. The lesion is measured in terms of diameter, edema and hemorrhage and the extent to which a combined index of these is inhibited by prior intraperitoneal injection of the test compound at 200 mg./kg. is then reported, unless otherwise stated; (v) Forssman Shock Test: Lethal shock is produced in guinea pigs by an i.v. injection of anti-Forssman antiserum and the harmonic mean death time of treated guinea pigs is compared with that of simultaneous controls; (vi) Complement Level Reduction Test: In this test, the above dosed guinea pigs, or others, are bled for serum and the complement level is determined in undiluted serum by the capillary tube method of U.S. Pat. No. 3,876,376 and compared to undosed control guinea pigs; (vii) Cap 50 Test: Here, appropriate amounts of the test compound are added to a pool of guinea pig serum in vitro, after which the undiluted serum capillary tube assay referred to above is run. The concentration of compound inhibiting 50% is reported; (viii) Guinea Pig Intraperitoneal Test (GPIP): Guinea pigs weighing about 300 g. are dosed intraperitoneally (i.p.) with 200 mg./kg. of the test compound dissolved in saline and adjusted to pH 7-8. Approximately 0.4 ml. blood samples, taken by orbital sinus puncture 30 minutes and one hour after injections, are collected directly into centrifuge tubes; 5 ml. blood samples, taken by decapitation 2 hours after injection are collected directly into diSPo® beakers. The samples were allowed to clot, centrifuged, and the resultant sera are assayed for complement activity using the capillary complement assay. Percent inhibition is calculated by comparison with simultaneous controls. The results appear in Table I together with results of Test Code 026, 035, 036, Cap 50 and % Inhibition.

[2] = target: T1, activated human C1 (Homo sapiens, UniProt P09871); experiment: Test Code 026 (C1 inhibitor); assay type: biochemical; details: serial dilution assay, twofold dilutions; higher well number indicates higher activity
T1 construct: C1r and C1s cleaved to two-chain proteases
Source text: (§1) An active inhibitor protects C2 from C1 and C4; (ii) Test Code 035 (C3-C9 inhibitor): This test determines the ability of the late components of human complement (C3-C9) to lyse EAC 142 in the presence of appropriate dilutions of the test compound. An active inhibitor protects EAC 142 from lysis by human C3-C9; (iii) Test Code 036 (C-Shunt inhibitor): In this test human erythrocytes rendered fragile are lysed in autologous serum via the shunt pathway activated by cobra venom factor in the presence of appropriate dilutions of the test compound. Inhibition of the shunt pathway results in failure of lysis; (iv) Forssman Vasculitis Test: Here, the well known complement dependent lesion, Forssman vasculitis, is produced in guinea pigs by intradermal injection of rabbit anti-Forssman antiserum. […] Percent inhibition is calculated by comparison with simultaneous controls. […]

[3] = system: shunt pathway activated by cobra venom factor; experiment: Test Code 036 (C-Shunt inhibitor), lysis of human erythrocytes in autologous serum; assay type: biochemical; details: serial dilution assay, twofold dilutions; higher well number indicates higher activity
Source text: as §1

[4] = system: late components of human complement (C3-C9); experiment: Test Code 035 (C3-C9 inhibitor), lysis of EAC 142; assay type: biochemical; details: serial dilution assay, twofold dilutions; higher well number indicates higher activity
Source text: as §1

[5] = 0.5 h, serum 30 minutes after injection, read-out: In Vivo Activity (Guinea Pig) % Inhibition Intraperitoneal, 30 minutes
[6] = 1 h, serum 60 minutes after injection, read-out: In Vivo Activity (Guinea Pig) % Inhibition Intraperitoneal, 60 minutes
[7] = 2 h, serum 120 minutes after injection, read-out: In Vivo Activity (Guinea Pig) % Inhibition Intraperitoneal, 120 minutes

T1 sequence (P09871 16-688): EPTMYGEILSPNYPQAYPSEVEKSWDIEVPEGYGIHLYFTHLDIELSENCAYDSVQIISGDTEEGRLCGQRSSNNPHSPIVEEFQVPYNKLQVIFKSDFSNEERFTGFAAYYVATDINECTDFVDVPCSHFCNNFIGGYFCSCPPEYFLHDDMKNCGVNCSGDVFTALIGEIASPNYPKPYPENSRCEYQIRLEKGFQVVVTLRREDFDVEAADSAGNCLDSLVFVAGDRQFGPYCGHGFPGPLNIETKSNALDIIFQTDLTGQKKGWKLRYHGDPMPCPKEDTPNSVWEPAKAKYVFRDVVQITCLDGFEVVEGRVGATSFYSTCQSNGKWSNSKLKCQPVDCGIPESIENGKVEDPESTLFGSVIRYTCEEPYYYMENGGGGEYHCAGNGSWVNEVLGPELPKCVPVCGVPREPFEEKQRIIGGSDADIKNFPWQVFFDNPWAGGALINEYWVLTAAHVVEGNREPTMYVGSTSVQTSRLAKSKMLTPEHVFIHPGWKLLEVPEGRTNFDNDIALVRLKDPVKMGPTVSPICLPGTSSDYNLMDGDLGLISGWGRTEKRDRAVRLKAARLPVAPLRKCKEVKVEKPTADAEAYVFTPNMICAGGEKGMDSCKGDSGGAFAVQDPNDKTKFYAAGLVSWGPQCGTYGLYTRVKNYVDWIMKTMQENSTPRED
T1 sequence (P00736 18-705 partner): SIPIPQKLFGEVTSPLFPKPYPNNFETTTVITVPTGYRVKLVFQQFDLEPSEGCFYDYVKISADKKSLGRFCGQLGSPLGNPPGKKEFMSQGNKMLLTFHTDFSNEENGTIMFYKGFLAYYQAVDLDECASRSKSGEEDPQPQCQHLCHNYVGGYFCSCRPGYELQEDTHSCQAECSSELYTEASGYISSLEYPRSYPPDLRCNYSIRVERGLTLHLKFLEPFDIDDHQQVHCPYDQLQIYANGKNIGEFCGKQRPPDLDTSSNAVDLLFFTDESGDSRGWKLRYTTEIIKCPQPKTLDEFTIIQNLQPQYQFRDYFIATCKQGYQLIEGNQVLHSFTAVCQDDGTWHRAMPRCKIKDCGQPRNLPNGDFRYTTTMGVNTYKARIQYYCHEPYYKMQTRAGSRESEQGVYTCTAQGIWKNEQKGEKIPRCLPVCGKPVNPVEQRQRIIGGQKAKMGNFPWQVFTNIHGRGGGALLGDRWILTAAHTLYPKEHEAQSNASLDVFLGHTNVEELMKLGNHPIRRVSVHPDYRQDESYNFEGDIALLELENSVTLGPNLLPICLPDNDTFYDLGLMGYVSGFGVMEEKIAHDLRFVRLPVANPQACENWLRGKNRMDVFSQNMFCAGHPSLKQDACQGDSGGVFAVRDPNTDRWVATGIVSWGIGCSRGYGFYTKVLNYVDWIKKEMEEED
T1 sequence (P02745 23-245 partner): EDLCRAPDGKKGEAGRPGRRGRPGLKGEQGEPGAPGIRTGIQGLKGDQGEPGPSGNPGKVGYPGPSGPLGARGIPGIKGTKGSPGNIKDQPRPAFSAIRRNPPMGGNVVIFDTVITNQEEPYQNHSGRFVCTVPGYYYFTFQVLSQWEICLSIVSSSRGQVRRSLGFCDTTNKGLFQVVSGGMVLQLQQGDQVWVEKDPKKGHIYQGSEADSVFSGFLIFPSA
T1 sequence (P02746 28-253 partner): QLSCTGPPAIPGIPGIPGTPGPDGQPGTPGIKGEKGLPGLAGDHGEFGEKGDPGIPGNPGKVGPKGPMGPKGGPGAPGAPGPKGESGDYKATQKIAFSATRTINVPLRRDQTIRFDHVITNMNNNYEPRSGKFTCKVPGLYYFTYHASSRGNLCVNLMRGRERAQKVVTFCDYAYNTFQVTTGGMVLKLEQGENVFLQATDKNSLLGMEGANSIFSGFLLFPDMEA
T1 sequence (P02747 29-245 partner): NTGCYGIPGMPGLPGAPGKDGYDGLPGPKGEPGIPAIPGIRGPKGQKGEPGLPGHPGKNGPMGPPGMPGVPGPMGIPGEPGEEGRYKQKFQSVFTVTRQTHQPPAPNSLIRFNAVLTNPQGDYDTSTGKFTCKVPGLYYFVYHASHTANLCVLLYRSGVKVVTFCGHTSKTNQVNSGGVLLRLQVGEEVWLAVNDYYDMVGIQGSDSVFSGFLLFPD

Structure (SMILES): O=C([O-])c1cc(NS(=O)(=O)c2cc(S(=O)(=O)Nc3cc(C(=O)[O-])c(C(=O)[O-])c(C(=O)[O-])c3)c3cc(S(=O)(=O)Nc4cc(C(=O)[O-])c(C(=O)[O-])c(C(=O)[O-])c4)cc(S(=O)(=O)Nc4cc(C(=O)[O-])c(C(=O)[O-])c(C(=O)[O-])c4)c3c2)cc(C(=O)[O-])c1C(=O)[O-].[Na+].[Na+].[Na+].[Na+].[Na+].[Na+].[Na+].[Na+].[Na+].[Na+].[Na+].[Na+] [5,5',5",5'"-[1,3,5,7-Naphthalenetetrayltetrakis[sulfonylimino)]-tetra-1,2,3-benzenetricarboxylic acid, dodecasodium salt]
- inhibition at 200 mg/kg [1, 5]: -80%
- inhibition at 200 mg/kg [1, 6]: -77%
- inhibition at 200 mg/kg [1, 7]: -85%
- Cl 026 Wells [2]: +2 Wells
- Shunt Inhibition 036 Wells [3]: +6 Wells
- C-Late 035 Wells [4]: +4 Wells

Structure (SMILES): O=C([O-])c1cc(NS(=O)(=O)c2cc(S(=O)(=O)Nc3cc(C(=O)[O-])cc(C(=O)[O-])c3)c3cc(S(=O)(=O)Nc4cc(C(=O)[O-])cc(C(=O)[O-])c4)cc(S(=O)(=O)Nc4cc(C(=O)[O-])cc(C(=O)[O-])c4)c3c2)cc(C(=O)[O-])c1.[Na+].[Na+].[Na+].[Na+].[Na+].[Na+].[Na+].[Na+] [5,5',5",5'"-[1,3,5,7-Naphthalenetetrayltetrakis(sulfonylimino)]-tetra-1,3-benzenedicarboxylic acid, octasodium salt]
- inhibition at 200 mg/kg [1, 5]: -66%
- inhibition at 200 mg/kg [1, 6]: -71%
- inhibition at 200 mg/kg [1, 7]: -76%
- Cl 026 Wells [2]: +7 Wells
- Shunt Inhibition 036 Wells [3]: +6 Wells
- C-Late 035 Wells [4]: +2 Wells

— patent publication US4266077A, “Naphthalenetetrayltetrakis(sulfonylimino)-aryl multicarboxylic acids and salts thereof” (priority 1979, dated 1981)
